Patent publication US11311543B2, “Compositions and methods for inhibiting PTPN22” (YALE UNIVERSITY, priority 2016, dated 2022)

Key:
SHIP1 = test: Phosphorylation kinetics of SHIP1 in RAMOS cells after BCR triggering (immunoblot); type: cell-based, human; settings: LTV-1 5 μg/mL
Experimental: (§1) FIG. 40A depicts the phosphorylation of SHIP1, Lyn and ERK1/2 in total cell lysates of Ramos B cells treated or not with the PTPN22 inhibitor LTV-1 (5 μg/mL) for the indicated times. The cells were subjected to immunoblot analysis of P-LYN P-SHIP1, P-ERK1/2, and β-ACTIN. FIG. 40B depicts flow cytometry analysis of calcium flux of Ramos B cells treated or not with the PTPN22 inhibitor LTV-1 (5 μg/mL) for the indicated times followed by stimulation with anti-IgM F(ab′)2 at the indicated concentrations. FIG. 40C depicts flow cytometry analysis of calcium flux of splenocyte cells treated or not with LTV-1 (0.75 mg) twice daily for 7 days and stimulated with anti-IgM F(ab′)2 (25 μg/mL). FIG. 40D depicts flow cytometry analysis of calcium flux of splenocyte expressing PTPN22 shRNA and stimulated with anti-IgM F(ab′)2 (25 μg/mL).
(§2) However, downstream ERK phosphorylation was not affected by PTPN22 inhibition (FIG. 40A). Since PTPN22 inhibition enhanced TCR signaling in Jurkat cell line, it was investigated if PTPN22 blockade may also increase BCR signaling and calcium flux induced by BCR triggering was measured in RAMOS cells in the presence or not of LTV-1. Calcium flux was increased by PTPN22 inhibition, especially at lower concentration of BCR triggering agent (FIG. 40B). […]

PTPN22 [1] = biological target: T1, PTPN22 (Homo sapiens, UniProt Q9Y2R2); settings: Vang et al., 2012; cited from earlier work
T1 construct: host or cells: T cells (not further specified)
T1 sequence (Q9Y2R2 1-807): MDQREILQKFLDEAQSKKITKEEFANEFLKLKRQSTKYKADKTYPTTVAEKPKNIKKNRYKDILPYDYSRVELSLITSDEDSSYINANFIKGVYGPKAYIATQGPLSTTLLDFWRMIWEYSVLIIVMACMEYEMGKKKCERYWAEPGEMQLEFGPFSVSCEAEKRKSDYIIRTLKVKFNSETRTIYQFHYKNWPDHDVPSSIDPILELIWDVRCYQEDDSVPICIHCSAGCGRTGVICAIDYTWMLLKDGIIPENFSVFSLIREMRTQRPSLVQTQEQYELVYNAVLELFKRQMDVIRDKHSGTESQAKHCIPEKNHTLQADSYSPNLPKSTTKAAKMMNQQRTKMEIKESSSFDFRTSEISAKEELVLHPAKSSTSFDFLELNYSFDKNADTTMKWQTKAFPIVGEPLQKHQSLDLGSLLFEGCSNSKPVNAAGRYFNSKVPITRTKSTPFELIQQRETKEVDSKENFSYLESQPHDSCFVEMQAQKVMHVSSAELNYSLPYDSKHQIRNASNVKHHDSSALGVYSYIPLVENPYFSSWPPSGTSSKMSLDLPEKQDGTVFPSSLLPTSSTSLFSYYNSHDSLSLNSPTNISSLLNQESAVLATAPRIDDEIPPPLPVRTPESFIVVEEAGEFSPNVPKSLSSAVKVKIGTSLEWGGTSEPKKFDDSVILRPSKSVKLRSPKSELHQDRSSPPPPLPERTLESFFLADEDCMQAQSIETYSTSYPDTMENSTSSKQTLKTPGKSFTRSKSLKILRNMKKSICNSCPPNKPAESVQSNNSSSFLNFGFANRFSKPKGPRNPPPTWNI

ERK = test: Phosphorylation kinetics of ERK in RAMOS cells after BCR triggering (immunoblot); type: cell-based, human; settings: LTV-1 5 μg/mL
Experimental: as §1, §2

PTPN22 [2] = test: PTPN22 expression by western blot in shRNA-transduced RAMOS B cell line; type: cell-based; settings: human RAMOS B cell line, GFP+ shRNA+ vs GFP-
Experimental: FIG. 10A depicts flow cytometry analysis of Ramos B cells transduction efficiency. Ramos B cells were transduced with three different GFP-tagged shRNA PTPN22 expressing lentiviruses and probed for GFP expression. […] Percentage of knock-down is indicated. FIG. 10B depicts the frequencies of polyreactive new emigrant B cells from sorted GFP− fractions were determined. […] For each B-cell fraction, the frequency of reactive (filled area) and non-reactive (open area) clones is summarized in pie charts with the total number of clones tested indicated in the center. FIG. 10C depicts the frequencies of HEp-2 reactive new emigrant B cells from sorted GFP− fractions were determined. […] For each B-cell fraction, the frequency of reactive (filled area) and non-reactive (open area) clones is summarized in pie charts with the total number of clones tested indicated in the center. FIG. 10D depicts the frequencies of antinuclear new emigrant B cells are compared between GFP− and GFP+ shRNA+ new emigrant B cells. […]
Total cell lysates were separated by SDS page, transferred to PVDF membranes, probed with mouse anti-PTPN22 (Invitrogen) and detected by chemiluminescence (Amersham ECL Prime Western Blotting detection Reagent) using a GBox documentation system (Syngene). For quantification, blots were stripped with stripping buffer (Pierce) and reprobed with a mouse anti-β-Actin antibody (Sigma-Aldrich).

Row | Compound | phosphorylation of SHIP1 at position Y2010 (SHIP1) | PTPN22 enzymatic activity in T cells in vitro (PTPN22 [1]) | downstream ERK phosphorylation (ERK) | inhibition of PTPN22 expression detected by western blot (PTPN22 [2])
1 | Cc1ccccc1N1C(=O)/C(=C/c2ccc(OCc3cccc(C(=O)O)c3)cc2)C(=O)NC1=S [LTV-1] | decreases | can be inhibited | not affected | –
2 | shRNA #1: shRNA targeting human PTPN22, 5′-CTAGTGCTCTTGGTGTATATT-3′, delivered by GFP-tagged lentivirus | – | – | – | about 80%
